Measured values reported in ChEMBL document CHEMBL5442219.

What was measured:
Conditions in all cases: Compound concentration 10 µM
[1] = target: T1, 5-hydroxytryptamine receptor 1A (Homo sapiens) (UniProt P08908)
T1 sequence (whole entry): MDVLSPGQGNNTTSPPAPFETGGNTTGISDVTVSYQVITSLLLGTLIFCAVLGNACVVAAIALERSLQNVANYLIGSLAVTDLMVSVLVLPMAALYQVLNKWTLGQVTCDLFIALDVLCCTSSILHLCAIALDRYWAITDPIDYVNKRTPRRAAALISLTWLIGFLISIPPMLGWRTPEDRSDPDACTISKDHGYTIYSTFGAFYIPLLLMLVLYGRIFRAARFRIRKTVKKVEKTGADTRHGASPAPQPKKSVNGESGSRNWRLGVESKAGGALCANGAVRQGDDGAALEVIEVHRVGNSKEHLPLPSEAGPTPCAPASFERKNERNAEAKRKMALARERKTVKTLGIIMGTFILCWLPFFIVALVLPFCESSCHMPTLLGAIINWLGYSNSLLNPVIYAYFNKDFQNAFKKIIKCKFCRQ
Description: PDSP Primary Binding target: HTR1A - Compounds are tested at 10 uM concentration, plate are incubated at room temperature in the dark for 90 minutes. Reaction are stopped by vacuum filtration onto 0.3% polyethyleneimine soaked filter mats using Filtermate harvester. Scintilation cocktail is then melted onto microwave-dried filters on a hot plate and the radio activity is counted in Microbia counter.

[2] = target: 5-hydroxytryptamine receptor 1B (Homo sapiens) (UniProt P28222)
Chain of 5-hydroxytryptamine receptor 1B (Homo sapiens) (P28222 whole entry): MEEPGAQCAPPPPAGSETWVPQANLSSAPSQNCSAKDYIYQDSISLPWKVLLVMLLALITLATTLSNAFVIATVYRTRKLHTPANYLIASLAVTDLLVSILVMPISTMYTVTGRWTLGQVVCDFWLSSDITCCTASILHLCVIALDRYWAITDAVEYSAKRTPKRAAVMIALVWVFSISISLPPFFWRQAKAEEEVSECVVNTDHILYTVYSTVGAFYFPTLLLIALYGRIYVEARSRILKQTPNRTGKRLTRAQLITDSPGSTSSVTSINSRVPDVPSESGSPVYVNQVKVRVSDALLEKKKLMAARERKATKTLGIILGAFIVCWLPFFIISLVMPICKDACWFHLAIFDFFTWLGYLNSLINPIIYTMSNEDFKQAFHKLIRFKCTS
Description: PDSP Primary Binding target: HTR1B - Compounds are tested at 10 uM concentration, plate are incubated at room temperature in the dark for 90 minutes. Reaction are stopped by vacuum filtration onto 0.3% polyethyleneimine soaked filter mats using Filtermate harvester. Scintilation cocktail is then melted onto microwave-dried filters on a hot plate and the radio activity is counted in Microbia counter.

[3] = target: T2, Muscarinic acetylcholine receptor M2 (Homo sapiens) (UniProt P08172)
T2 sequence (whole entry): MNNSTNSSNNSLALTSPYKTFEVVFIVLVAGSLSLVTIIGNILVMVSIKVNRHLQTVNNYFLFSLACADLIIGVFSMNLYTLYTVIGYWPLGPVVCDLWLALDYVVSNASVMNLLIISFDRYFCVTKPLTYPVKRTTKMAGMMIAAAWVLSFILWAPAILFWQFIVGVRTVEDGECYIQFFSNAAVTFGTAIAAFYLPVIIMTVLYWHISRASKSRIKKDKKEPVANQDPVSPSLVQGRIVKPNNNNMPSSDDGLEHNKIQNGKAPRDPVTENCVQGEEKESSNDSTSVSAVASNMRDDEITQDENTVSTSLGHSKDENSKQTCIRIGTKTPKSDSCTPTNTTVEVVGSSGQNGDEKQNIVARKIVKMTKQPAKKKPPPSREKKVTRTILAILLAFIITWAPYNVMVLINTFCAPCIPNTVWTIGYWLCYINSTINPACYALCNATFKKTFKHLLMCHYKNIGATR
Description: PDSP Primary Binding target: CHRM2 - Compounds are tested at 10 uM concentration, plate are incubated at room temperature in the dark for 90 minutes. Reaction are stopped by vacuum filtration onto 0.3% polyethyleneimine soaked filter mats using Filtermate harvester. Scintilation cocktail is then melted onto microwave-dried filters on a hot plate and the radio activity is counted in Microbia counter.

[4] = target: T3, Alpha-1A adrenergic receptor (Homo sapiens) (UniProt P35348)
T3 sequence (whole entry): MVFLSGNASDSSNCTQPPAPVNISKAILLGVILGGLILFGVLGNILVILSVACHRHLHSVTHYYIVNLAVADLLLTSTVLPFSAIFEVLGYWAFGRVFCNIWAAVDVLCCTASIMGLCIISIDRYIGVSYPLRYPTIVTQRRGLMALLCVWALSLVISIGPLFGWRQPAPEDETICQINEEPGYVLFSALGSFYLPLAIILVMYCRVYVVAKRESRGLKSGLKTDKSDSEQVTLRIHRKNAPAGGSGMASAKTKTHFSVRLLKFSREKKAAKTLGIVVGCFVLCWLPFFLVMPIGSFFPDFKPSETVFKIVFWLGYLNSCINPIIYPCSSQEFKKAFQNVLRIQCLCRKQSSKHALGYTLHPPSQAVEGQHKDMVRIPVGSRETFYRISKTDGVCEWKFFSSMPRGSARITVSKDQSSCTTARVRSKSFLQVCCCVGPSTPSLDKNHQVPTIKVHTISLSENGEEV
Description: PDSP Primary Binding target: ADRA1A - Compounds are tested at 10 uM concentration, plate are incubated at room temperature in the dark for 90 minutes. Reaction are stopped by vacuum filtration onto 0.3% polyethyleneimine soaked filter mats using Filtermate harvester. Scintilation cocktail is then melted onto microwave-dried filters on a hot plate and the radio activity is counted in Microbia counter.

[5] = target: Kappa-type opioid receptor (Homo sapiens) (UniProt P41145)
Chain of Kappa-type opioid receptor (Homo sapiens) (P41145 whole entry): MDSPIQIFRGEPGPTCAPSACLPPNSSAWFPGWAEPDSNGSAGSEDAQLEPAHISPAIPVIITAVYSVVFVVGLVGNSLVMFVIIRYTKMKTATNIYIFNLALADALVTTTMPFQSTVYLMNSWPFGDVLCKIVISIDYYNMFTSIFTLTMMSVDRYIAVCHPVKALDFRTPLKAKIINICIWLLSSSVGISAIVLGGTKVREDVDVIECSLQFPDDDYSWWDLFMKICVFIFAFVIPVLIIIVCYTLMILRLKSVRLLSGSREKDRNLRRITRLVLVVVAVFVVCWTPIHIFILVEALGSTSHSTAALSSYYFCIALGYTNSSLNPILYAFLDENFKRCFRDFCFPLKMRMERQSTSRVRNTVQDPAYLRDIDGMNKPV
Description: PDSP Primary Binding target: OPRK1 - Compounds are tested at 10 uM concentration, plate are incubated at room temperature in the dark for 90 minutes. Reaction are stopped by vacuum filtration onto 0.3% polyethyleneimine soaked filter mats using Filtermate harvester. Scintilation cocktail is then melted onto microwave-dried filters on a hot plate and the radio activity is counted in Microbia counter.

[6] = target: D(3) dopamine receptor (Homo sapiens) (UniProt P35462)
Chain of D(3) dopamine receptor (Homo sapiens) (P35462 whole entry): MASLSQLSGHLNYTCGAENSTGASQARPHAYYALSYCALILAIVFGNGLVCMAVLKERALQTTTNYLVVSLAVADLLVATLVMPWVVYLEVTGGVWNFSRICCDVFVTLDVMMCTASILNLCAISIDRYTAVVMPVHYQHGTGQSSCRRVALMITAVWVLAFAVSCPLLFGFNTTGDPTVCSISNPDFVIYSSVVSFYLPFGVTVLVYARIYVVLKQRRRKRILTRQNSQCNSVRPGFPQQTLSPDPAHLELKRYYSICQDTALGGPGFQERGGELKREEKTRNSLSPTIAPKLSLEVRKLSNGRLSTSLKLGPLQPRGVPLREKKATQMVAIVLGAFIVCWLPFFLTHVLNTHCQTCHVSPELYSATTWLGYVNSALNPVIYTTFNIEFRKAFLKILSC
Description: PDSP Primary Binding target: DRD3 - Compounds are tested at 10 uM concentration, plate are incubated at room temperature in the dark for 90 minutes. Reaction are stopped by vacuum filtration onto 0.3% polyethyleneimine soaked filter mats using Filtermate harvester. Scintilation cocktail is then melted onto microwave-dried filters on a hot plate and the radio activity is counted in Microbia counter.

[7] = target: T4, Muscarinic acetylcholine receptor M5 (Homo sapiens) (UniProt P08912)
T4 sequence (whole entry): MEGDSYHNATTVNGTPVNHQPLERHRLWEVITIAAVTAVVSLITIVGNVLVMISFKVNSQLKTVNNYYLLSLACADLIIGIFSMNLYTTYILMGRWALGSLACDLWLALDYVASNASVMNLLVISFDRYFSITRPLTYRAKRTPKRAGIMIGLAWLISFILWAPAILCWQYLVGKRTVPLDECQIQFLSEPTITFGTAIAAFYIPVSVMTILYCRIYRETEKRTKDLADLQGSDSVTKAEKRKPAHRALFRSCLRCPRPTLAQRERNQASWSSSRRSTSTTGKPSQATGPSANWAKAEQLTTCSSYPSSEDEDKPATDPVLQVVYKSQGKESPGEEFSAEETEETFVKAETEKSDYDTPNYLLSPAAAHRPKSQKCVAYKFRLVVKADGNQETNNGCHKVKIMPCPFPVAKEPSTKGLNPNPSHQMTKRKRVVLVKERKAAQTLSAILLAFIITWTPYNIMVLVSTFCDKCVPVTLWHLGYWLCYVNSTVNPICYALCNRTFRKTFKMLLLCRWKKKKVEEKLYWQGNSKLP
Description: PDSP Primary Binding target: CHRM5 - Compounds are tested at 10 uM concentration, plate are incubated at room temperature in the dark for 90 minutes. Reaction are stopped by vacuum filtration onto 0.3% polyethyleneimine soaked filter mats using Filtermate harvester. Scintilation cocktail is then melted onto microwave-dried filters on a hot plate and the radio activity is counted in Microbia counter.

[8] = target: T5, Alpha-2C adrenergic receptor (Homo sapiens) (UniProt P18825)
T5 sequence (whole entry): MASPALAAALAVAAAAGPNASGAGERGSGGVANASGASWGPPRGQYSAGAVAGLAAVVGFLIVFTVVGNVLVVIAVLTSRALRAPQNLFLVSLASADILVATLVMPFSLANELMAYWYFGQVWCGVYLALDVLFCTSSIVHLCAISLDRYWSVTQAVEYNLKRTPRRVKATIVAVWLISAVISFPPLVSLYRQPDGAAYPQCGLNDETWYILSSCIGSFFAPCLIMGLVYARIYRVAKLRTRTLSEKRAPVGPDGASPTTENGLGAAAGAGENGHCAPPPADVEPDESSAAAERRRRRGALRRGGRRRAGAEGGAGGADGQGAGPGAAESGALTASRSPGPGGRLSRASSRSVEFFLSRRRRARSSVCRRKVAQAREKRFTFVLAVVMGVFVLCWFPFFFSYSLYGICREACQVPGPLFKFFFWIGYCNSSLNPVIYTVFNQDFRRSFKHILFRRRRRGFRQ
Description: PDSP Primary Binding target: ADRA2C - Compounds are tested at 10 uM concentration, plate are incubated at room temperature in the dark for 90 minutes. Reaction are stopped by vacuum filtration onto 0.3% polyethyleneimine soaked filter mats using Filtermate harvester. Scintilation cocktail is then melted onto microwave-dried filters on a hot plate and the radio activity is counted in Microbia counter.

[9] = target: 5-hydroxytryptamine receptor 2B (Homo sapiens) (UniProt P41595)
Chain of 5-hydroxytryptamine receptor 2B (Homo sapiens) (P41595 whole entry): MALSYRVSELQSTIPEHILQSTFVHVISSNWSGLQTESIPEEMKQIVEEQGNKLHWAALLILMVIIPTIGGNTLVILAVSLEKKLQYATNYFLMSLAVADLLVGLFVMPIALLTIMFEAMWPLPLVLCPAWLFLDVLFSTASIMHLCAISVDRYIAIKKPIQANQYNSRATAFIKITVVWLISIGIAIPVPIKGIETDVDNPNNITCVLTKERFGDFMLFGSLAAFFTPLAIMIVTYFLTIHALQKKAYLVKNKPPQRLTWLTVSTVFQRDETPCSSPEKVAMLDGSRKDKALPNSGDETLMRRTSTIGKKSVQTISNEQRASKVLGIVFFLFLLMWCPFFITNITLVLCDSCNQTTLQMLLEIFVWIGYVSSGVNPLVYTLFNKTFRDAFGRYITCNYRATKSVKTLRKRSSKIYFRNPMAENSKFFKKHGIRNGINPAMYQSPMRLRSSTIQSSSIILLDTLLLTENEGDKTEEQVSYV
Description: PDSP Primary Binding target: HTR2B - Compounds are tested at 10 uM concentration, plate are incubated at room temperature in the dark for 90 minutes. Reaction are stopped by vacuum filtration onto 0.3% polyethyleneimine soaked filter mats using Filtermate harvester. Scintilation cocktail is then melted onto microwave-dried filters on a hot plate and the radio activity is counted in Microbia counter.

[10] = target: Beta-1 adrenergic receptor (Homo sapiens) (UniProt P08588)
Chain of Beta-1 adrenergic receptor (Homo sapiens) (P08588 whole entry, looked up): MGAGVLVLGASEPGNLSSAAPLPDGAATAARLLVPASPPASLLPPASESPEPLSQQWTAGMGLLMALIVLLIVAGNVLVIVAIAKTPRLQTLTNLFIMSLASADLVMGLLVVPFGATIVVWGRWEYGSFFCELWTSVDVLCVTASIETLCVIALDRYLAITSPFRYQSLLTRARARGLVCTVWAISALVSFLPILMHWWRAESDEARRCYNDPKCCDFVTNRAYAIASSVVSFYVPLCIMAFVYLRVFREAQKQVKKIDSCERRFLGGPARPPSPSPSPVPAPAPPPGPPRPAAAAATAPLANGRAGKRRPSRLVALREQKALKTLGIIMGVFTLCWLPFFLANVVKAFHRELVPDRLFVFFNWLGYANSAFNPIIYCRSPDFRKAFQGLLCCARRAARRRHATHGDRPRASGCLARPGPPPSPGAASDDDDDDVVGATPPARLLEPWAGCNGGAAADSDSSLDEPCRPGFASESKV
Description: PDSP Primary Binding target: ADRB1 - Compounds are tested at 10 uM concentration, plate are incubated at room temperature in the dark for 90 minutes. Reaction are stopped by vacuum filtration onto 0.3% polyethyleneimine soaked filter mats using Filtermate harvester. Scintilation cocktail is then melted onto microwave-dried filters on a hot plate and the radio activity is counted in Microbia counter.

Measured: inhibition

Cc1csc2c(N[C@@H](C)CN3CCN(S(=O)(=O)c4ccc(Cl)c(Cl)c4)CC3)ncnc12
active: [5] 85.4% | [6] 67.4%
inactive: [1] 17% | [2] -1.11% | [3] 1.88% | [4] -5.96% | [7] -7.08% | [8] 14.6% | [9] 32.3% | [10] 26.2%
